Results reported in patent US20120083471A1, “Novel Compounds, Pharmaceutical Compositions Containing Same, Methods of Use for Same, and Methods for Preparing Same” (priority 2008, published 2012).
Entries after “also recorded” stand apart in the source; their conditions may differ.

What was measured:
DIO mice = assay: Serum chemistry and Oil Red O liver histology of 16 d treated DIO mice; assay type: in vivo, mouse
Description: For acute studies, 6 DIO or lean mice were treated with a single dose of FSG67 (20 mg/kg, i.p.) approximately 3 hrs past lights-on. Animal weights and food consumption were measured 18 h after treatment. Following euthanization, the hypothalmuses were harvested to measure orexigenic and anorexigenic neuropeptide gene expression. In the chronic studies, DIO mice, 4-10 animals per group, were treated daily with FSG67 (5 mg/kg, i.p.) or with RMPI vehicle for the days indicated. Body weight and food intake were measured daily. In one study, a cohort of mice was pair-fed with amounts consumed by the FSG67-treated animals and mice were monitored with indirect calorimetry (Oxymax Equal Flow System®, Columbus Instruments, Columbus, Ohio). Measurements of VO2 (ml/kg/hr) and VCO2 (ml/kg/hr) were performed and recorded every 15 min. The respiratory exchange ratio (RER) was calculated by Oxymax software, version 5.9, and is defined as ratio of VCO2 to VO2 33. After completion of the treatment course, animals were euthanized by CO2 inhalation 4 hrs following the final dose of FSG67. Tissues were harvested immediately for RNA extraction; serum was collected and analyzed for glucose, cholesterol, and triglyceride measurements (Bioanalytics, Gaithersburg, Md.). Fresh liver tissue was snap frozen in liquid N2, sectioned, and stained with hematoxylin and Oil Red O to visualize triglyceride droplets.
Consistent with the systemic reduction in adiposity, GPAT inhibition reversed hepatic steatosis in DIO mice. […] Cholesterol levels remained unchanged (FIG. 14d). The resolution of the hepatic steatosis in FSG67 treated mice may have contributed to the normalization of blood glucose levels.

mtGPAT1 = biological target: T1, mtGPAT1 (Mus musculus, UniProt Q61586); assay: In vitro mtGPAT inhibition: acylation of 14C-glycerol 3-phosphate with palmitoyl-CoA, scintillation counting; assay type: biochemical; details: Table 2, sulfonamides 15a-i and 17a-f; triplicate; read-out: IC50 (μM) ± SD, In Vitro Anti-mtGPAT1 Activity
T1 construct: from tissue; host or cells: mitochondrial preparation
T1 sequence (Q61586 1-827): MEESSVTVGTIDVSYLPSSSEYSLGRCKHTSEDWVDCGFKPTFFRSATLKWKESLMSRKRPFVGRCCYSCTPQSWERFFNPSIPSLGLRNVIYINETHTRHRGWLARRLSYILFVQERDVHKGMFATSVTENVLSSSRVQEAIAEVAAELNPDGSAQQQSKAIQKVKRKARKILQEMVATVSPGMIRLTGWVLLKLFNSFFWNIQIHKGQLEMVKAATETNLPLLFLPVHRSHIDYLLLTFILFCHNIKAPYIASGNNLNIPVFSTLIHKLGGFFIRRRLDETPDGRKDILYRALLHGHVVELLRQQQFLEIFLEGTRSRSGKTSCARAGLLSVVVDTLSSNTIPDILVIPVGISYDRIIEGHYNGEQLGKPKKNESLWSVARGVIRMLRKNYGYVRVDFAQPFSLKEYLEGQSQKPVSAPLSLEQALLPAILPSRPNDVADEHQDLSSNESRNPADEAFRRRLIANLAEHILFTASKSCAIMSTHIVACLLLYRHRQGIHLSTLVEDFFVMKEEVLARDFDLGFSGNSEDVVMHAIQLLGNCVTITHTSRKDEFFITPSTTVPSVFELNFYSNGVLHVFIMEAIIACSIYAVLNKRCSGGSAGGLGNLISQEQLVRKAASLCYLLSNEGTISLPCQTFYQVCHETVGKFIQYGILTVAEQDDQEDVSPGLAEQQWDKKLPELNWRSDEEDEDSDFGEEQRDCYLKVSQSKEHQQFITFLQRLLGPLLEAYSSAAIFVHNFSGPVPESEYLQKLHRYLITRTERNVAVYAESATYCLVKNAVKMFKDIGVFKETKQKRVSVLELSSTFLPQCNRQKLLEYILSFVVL
Description: The compounds produced as described above were evaluated for their ability to inhibit the acylation of glycerol-3-phosphate in vitro. The acylation reaction between ^14C-labelled glycerol-3-phosphate and palmitoyl-CoA, initiated by adding mtGPAT, was measured in the presence of varying concentrations of the inhibitor by scintillation counting as described in more detail below.
A mitochondrial preparation of glycerol 3-phosphate acyltransferase was added to the incubation mixture containing ^14C-labeled glycerol 3-phosphate, palmitoyl-CoA, and varying inhibitor concentrations to initiate the reaction. After ten min, the reaction was terminated by adding chloroform, methanol, and 1% perchloric acid. Five minutes later, more chloroform and perchloric acid were added, and the upper aqueous layer was removed. After washing three times with 1% perchloric acid, the organic layer was evaporated under nitrogen, and the amount of ^14C present was counted to determine the extent of reaction inhibition. Data points were recorded in triplicate, and IC50 values were calculated based on the amount of test inhibitor necessary to produce 50% of mtGPAT activity observed in the absence of inhibitor but in the presence of DMSO vehicle control.

lean mice = assay: Intracerebroventricular FSG67 treatment of lean mice; assay type: in vivo, mouse; details: for weight lost: within 24 h
Description: Chronic lateral cerebroventricle cannulas. For experiments requiring intracerebroventricular (i.c.v.) administration of compounds, mice were outfitted unilaterally with chronic indwelling cannulas aimed at the lateral cerebroventricle. After mice recovered from surgeries for one week, cannula placements were assessed by measuring food intake in response to i.c.v. neuropeptide Y (NPY, American Peptide Co., CA). Mice were given NPY (0.25 ηmol/2 μl injection) or sterile 0.9% saline vehicle via the i.c.v. cannula, and allowed 1-h access to grain-based pellets during the light phase. Mice that ate at least 0.5 g of food after NPY were used in the experiments. Eleven mice were given a 2 μL injection of RPMI-1640 without glucose (Cambrex, Md.) for vehicle control. Three days later, six mice received a 100 nmole dose of FSG67 in the vehicle while 5 mice received 320 nmoles of compound.
We administered FSG67 icy to determine whether GPAT inhibition acts centrally to reduce food intake. Lean mice were treated with FSG67 icy at doses 100 and 320 nmoles (approximately […] less than the 5 mg/kg single day systemic dose). Within 24 h, mice treated with 100 nmoles lost 0.75±0.4 g (p=0.016) while the 320 nmole group lost 1.8±0.3 g (p=0.0003); vehicle controls gained 0.43±0.1 g and 0.33±0.1 g respectively (FIG. 15a). The animal weight was regained within 48 h without a significant rebound (data not shown). […] Within 48 h, the animals began eating normally with slight hyperphagia in the 320 nmole group on days 3 and 4 (data not shown).

Compound: CCCCCCCCCS(=O)(=O)Nc1ccccc1C(=O)O [Compound 15g, 2-(Nonylsulfonamido)benzoic acid]
- liver histology: inflammation, necrosis, hepatocellular injury (DIO mice): No inflammation, necrosis, or hepatocellular injury
- reduction in serum triglyceride levels vs pair-fed or vehicle (DIO mice): not statistically significant
- serum glucose (DIO mice; 5 mg/kg ip daily): 153.3 ± 10.5 mg/dL
- serum triglyceride (DIO mice; 5 mg/kg ip daily): 111.3 ± 10.9 mg/dL
- hepatic steatosis (Oil red O liver sections) (DIO mice; listed as FSG67): nearly complete resolution; also recorded: almost complete amelioration of fat accumulation
- serum cholesterol levels (DIO mice; listed as FSG67): unchanged; also recorded: unaffected
- IC50 (mtGPAT1): 8.1 µM
- weight lost (lean mice; 100 nmoles icv): 0.75 ± 0.4 g
- chow intake (lean mice; 320 nmole icv): 2.5 ± 0.3 g
- weight lost (lean mice; 320 nmole icv): 1.8 ± 0.3 g
- mouse weight one day following treatment (lean mice; 100 and 320 nmole icv): significantly reduced
- significant reduction in food intake (lean mice; 100 vs 320 nmole icv, listed as FSG67): only occurred in the 320 nmole treatment group
- time to regain animal weight (lean mice; icv, without significant rebound): ≤ 48 h
